Experimental data taken from PMC4881598, “Novel Zinc(II) Complexes [Zn(atc-Et)2] and [Zn(atc-Ph)2]: In Vitro and in Vivo Antiproliferative Studies” (International Journal of Molecular Sciences, 2016).
Where two headings read alike, the source gives them in different places.

What was measured:
[1] = system: MDA-MB-231 cells (breast adenocarcinoma); assay: Cytotoxic analysis (IC50) of adherent cell lines, resazurin: MDA-MB-231; format: cell-based; conditions: for IC50: MDA-MB-231 tumor cells, 24 h incubation, resazurin, read-out: IC50 ± SD, MDA-MB-231; for SI (selectivity index), MDA-MB-231: IC50 for MRC-5 cells / IC50 for MDA-MB-231 cells
Procedure: (§1) All adherent cell lines, including healthy lung fibroblast (MRC-5), hepatocellular carcinoma (HepG-2), cervix adenocarcinoma (HeLa), breast adenocarcinoma (MDA-MB-231), prostate carcinoma (DU 145) and suspended chronic myelogenous leukemia (K-562) cells, were cultured in a humidified atmosphere containing 5% CO2 at 37 °C. The cultures were maintained in Dulbecco's Modified Eagle Medium (DMEM) or Roswell Park Memorial Institute (RPMI) 1640 medium (Vitrocell®, Campinas, SP, Brazil) supplemented with 10% fetal bovine serum (FBS), 50 mg/L gentamicin sulfate, and 2 mg/L amphotericin B.
(§2) In these experiments, cells were collected in a solution of trypsin/ethylenediaminetetraacetic acid (EDTA) (Vitrocell®) and centrifuged (252× g for 5 min). The number of cells was counted using a Neubauer chamber (Celeromics, Valencia, Spain) after staining non-viable cells with 0.4% trypan blue solution (Sigma-Aldrich®) via the cell exclusion assay. Then, the cell concentration was adjusted to 7.5 × 10^4 cells/mL in DMEM for tumor cells and MRC-5 cells. Next, a 200 μL suspension was deposited into each well of a 96-well microplate to a cell density of 1.5 × 10^4 cells/well. The cells were incubated at 37 °C in an atmosphere of 5% CO2 for 24 h to allow the cells to attach to the plate. The coordination compounds were solubilized in DMSO to an initial concentration of 10,000 µg/mL. Test solutions of the complexes were prepared to obtain concentrations from 500 to 1.95 μg/mL. The diluted solutions were added to the cells after changing the medium to remove any non-adherent cells, and the cultures were incubated for an additional 24 h. The cytotoxicity of the complexes was determined after incubating the cells in 30 μL of resazurin for approximately 2 h. The measurement was performed using a Synergy H1 microplate reader (BioTek®, Winooski, VT, USA) with excitation and emission filters at wavelengths of 530 and 590 nm, respectively. The assays were performed in three independent experiments.
(§3) The SI of the complexes was calculated as the ratio of the IC50 for healthy MRC-5 cells to the IC50 for tumor cells. […] Substances with SI values >3 are considered promising.

[2] = system: MRC-5 cells (healthy lung fibroblast); assay: Cytotoxic analysis (IC50) of adherent cell lines, resazurin: MRC-5; format: cell-based; conditions: 24 h incubation, read-out: IC50 ± SD, MRC-5
Procedure: as §1, §2

[3] = system: DU 145 cells (prostate carcinoma); assay: Cytotoxic analysis (IC50) of adherent cell lines, resazurin: DU 145; format: cell-based; conditions: for IC50: DU 145 tumor cells, 24 h incubation, resazurin, read-out: IC50 ± SD, DU 145; for SI (selectivity index), DU 145: IC50 for MRC-5 cells / IC50 for DU 145 cells
Procedure: as §1, §2, §3

[4] = system: K-562 cells (chronic myelogenous leukemia); assay: Cytotoxic analysis (IC50) of suspended cells, resazurin: K-562; format: cell-based; conditions: for IC50: K-562 suspended tumor cells, 24 h incubation, resazurin, read-out: IC50 ± SD, K-562; for SI (selectivity index), K-562: IC50 for MRC-5 cells / IC50 for K-562 cells
Procedure: as §1
In these experiments, cells were centrifuged (252× g for 5 min), and the number of cells was counted using a Neubauer chamber after staining non-viable cells with 0.4% trypan blue solution (Sigma-Aldrich®) via the cell exclusion assay. Then, the cell concentration was adjusted to 2 × 10^5 cells/mL in RPMI 1640 medium. Next, 100 μL of the suspension was deposited into each well of a 96-well microplate to a final cell density of […] [35]. The complexes were dissolved in DMSO to an initial concentration of 10,000 μg/mL. Test solutions of the complexes were prepared to obtain concentrations from 500 to 1.95 μg/mL. The diluted solutions were added to the cells, and the cultures were incubated for 24 h. The cytotoxicity of the complexes was determined after incubating the cells in 30 μL of resazurin for approximately 5 h. The measurement was performed using a Synergy H1 microplate reader (BioTek®, Winooski, VT, USA) with excitation and emission filters at wavelengths of 530 and 590 nm, respectively. The assays were performed in three independent experiments.
as §3

[5] = system: HepG2 cells (hepatocellular carcinoma); assay: Cytotoxic analysis (IC50) of adherent cell lines, resazurin: HepG2; format: cell-based; conditions: for IC50: HepG2 tumor cells, 24 h incubation, resazurin, read-out: IC50 ± SD, HepG2; for SI (selectivity index), HepG2: IC50 for MRC-5 cells / IC50 for HepG2 cells
Procedure: as §1, §2, §3

[6] = system: HeLa cells (cervix adenocarcinoma); assay: Cytotoxic analysis (IC50) of adherent cell lines, resazurin: HeLa; format: cell-based; conditions: for IC50: HeLa tumor cells, 24 h incubation, resazurin, read-out: IC50 ± SD, HeLa; for SI (selectivity index), HeLa: IC50 for MRC-5 cells / IC50 for HeLa cells
Procedure: as §1, §2, §3

Artemia salina L. [7] = system: Artemia salina L.; design: method as in Freitas et al. (2011) [25]; conditions: ref Freitas et al. (2011) [25]; read-out: LC50 against Artemia salina L.; cited from earlier work
BALB/c mice [8] = assay: In vivo acute toxicity assay, single oral dose; conditions: single dose 1000 mg/kg body weight via gavage, 14 days, n = 6
Procedure: Female 16–20-week old BALB/c mice weighing 24–26 g were used after utilizing these animals for the bioavailability experiments. […] The mice were maintained in polycarbonate cages at 23 ± 2 °C, 56% ± 2% humidity at a 12-h light/dark cycle under specific-pathogen-free conditions (in a positive-pressure cabinet), and the animals were provided with food and water ad libitum [36].
The safety profile of the complexes to BALB/c mice was evaluated via acute toxicity assays according to protocols established by the OECD using the classical method to measure the acute toxicity (LD50) of a single oral dose (administered via gavage) of the complexes [26].
Each complex was suspended in a sunflower oil vehicle, and the vehicle was used as a control (control group). The complexes were administered as a single dose at 1000 mg/kg body weight via gavage (n = 6 animals/complex). […] The animals were monitored for 14 days, and behavioral parameters (Hippocratic screening) were evaluated.
At the end of the experiment, the animals were weighed, and blood was collected via the submandibular vein. Subsequently, the animals were euthanized in CO2 chambers, and their organs (heart, lungs, right and left kidneys, spleen and liver) were surgically removed, weighed and macroscopically analyzed. […]

Artemia salina L. [9] = assay: Artemia salina L. toxicity assay; format: in vivo; conditions: ratio of LC50 values to cisplatin
Procedure: To determine toxicity of the Zn^II complexes to brine shrimp, 25 mg of egg (Natal, RN, Brazil) was incubated in a beaker (2000 mL) containing artificial salt water at a temperature ranging from 20 to 30 °C. The artificial salt water consisted of 23 g NaCl, 11 g MgCl2·6H2O, 4 g Na2SO4, 1.3 g CaCl2·H2O, and 0.7 g KCl in 1000 mL distilled water. The pH was adjusted to 9.0 using 5N NaOH to avoid risk of death to the Artemia larvae (nauplii) due to a low pH during incubation.
After 24 hours, 0.6 g of Saccharomyces cerevisiae was added to the beaker per liter of salt water to feed the nauplii; after the eggs were incubated for 48 h, the nauplii were extracted for the experiments.
A 120 µL suspension of 10-15 nauplii was added to each well of a 96-well microplate, including the control wells. The compounds were solubilized in DMSO at 15,000 µg/mL and serially diluted in a separate 96-well microplate. The tested concentrations ranged from 1500 to 5.85 µg/mL. After incubation for 24 h, the plates were examined under a Lupa binocular microscope (X3.0), and the numbers of live nauplii in each well were counted to determine the LC50 [21]. The assays were performed in three independent experiments.

[10] = In vivo oral bioavailability test, plasma metal quantified by ICP-OES / ICP-MS; conditions: BALB/c mice, 300 mg/Kg oral gavage
Procedure: Female 4–8-week old BALB/c mice weighing 15–20 g were purchased from the central animal facilities of Campinas State University (UNICAMP, Campinas, SP, Brazil). The mice were maintained in polycarbonate cages at 23 ± 2 °C, 56% ± 2% humidity at a 12 h light/dark cycle under specific pathogen-free conditions (in a positive-pressure cabinet), and the animals were provided with food and water ad libitum. […] The animals (n = 2 animals/complex) received a dose of 300 mg/Kg body weight via oral gavage. At 20 min, 1 h, 2 h, and 4 h after drug administration, blood was drawn from two animals via the retro-orbital veins, draining the submandibular vein and the face of the mice to the point at which the origins of the jugular vein join so that drops of blood exude from the point of penetration. The plasma was separated and stored at −70 °C for quantification.
The metal ion (Zn) concentration was quantified via ICP-OES using a Thermo Scientific Model 6300 system (Thermo Scientific®, San Diego, CA, USA). Samples (50 µL) were diluted 1:100 with a solution containing 0.01% (v/v) Triton X-100 and 0.5% (v/v) nitric acid. During the experiment, the recovery validation test was performed, and this test produced a result of 94%–104% recovery.
For digestion, 50 µL of plasma sample and 5950 µL of double-distilled 20% (v/v) nitric acid were used. The samples were digested in a microwave (Berghof speedwave D 72800, Goshen, NY, USA), reaching a temperature of 170 °C. During the experiment, the recovery validation test was performed, and this test produced a result of 95%–105% recovery.

[11] = Solubility in solvents and vehicle (qualitative); format: physicochemical
BALB/c mice [12] = assay: Quantification of serum AST and ALT enzymatic activity levels; format: in vivo; conditions: ANOVA and Dunnett's test
Procedure: To analyze whether there were any biochemical changes in the liver of the animals, we quantified the serum AST and ALT enzymatic activity levels in mice after administration of the complexes via gavage before sacrificing, as described above. A total of 500 µL of blood was collected via the submandibular vein. The blood samples were placed in collection tubes, centrifuged at 1097.6× g for 15 min to separate the serum, and stored at −70 °C. The samples were analyzed on the day of collection.
Enzymatic activity measurements were performed using biochemical diagnostic kits from Labtest S.A. (Labtest S.A., Lagoa Santa, MG, Brazil).
Statistical analysis was performed using GraphPad Prism Version 1.5 software via ANOVA and Dunnett’s test, and p < 0.05 was established as the significance level.

[13] = Homo sapiens, MRC5, normal MRC-5 cells

Molecule	IC50 ([1]; Homo sapiens) [µM]	SI (selectivity index), MDA-MB-231 [1]	IC50 [2, 13] [µM]	IC50 ([3]; Homo sapiens) [µM]	SI (selectivity index), DU 145 [3]	IC50 ([4]; Homo sapiens, K562) [µM]	SI (selectivity index), K-562 [4]	IC50 ([5]; Homo sapiens) [µM]	SI (selectivity index), HepG2 [5]	IC50 ([6]; Homo sapiens) [µM]	SI (selectivity index), HeLa [6]	IC50 [1] [µM]	IC50 ([2]; normal MRC-5 cells) [µM]	IC50 [3] [µM]	IC50 [4] [µM]	IC50 [5] [µM]	IC50 [6] [µM]	further results
C/C(=N\NC(=S)Nc1ccccc1)c1ccccn1 [Hatc-Ph]	24.3 ± 5	0.3	7.4	15.1 ± 2.1	0.5	11.1 ± 0.6	0.7	36.3 ± 1.5	0.2	25 ± 0.2	0.3							
perchlorate compound of bis(isoniazid) Zn^II hexahydrate																		LC50 (Artemia salina L. [7]): 268 µM
CC(=NN=C([S-])Nc1ccccc1)c1ccccn1.CC(=NN=C([S-])Nc1ccccc1)c1ccccn1.[Zn+2] [Complex 2, [Zn(atc-Ph)2]]		2.2			0.3				3.6									mortality (BALB/c mice [8]): no mortality; fold lower toxicity in Artemia salina L. relative to cisplatin (Artemia salina L. [9]): 5.7 fold; maximum plasma concentration (Cmax) [10]: 1191.95 ng/mL; plasma concentration at 20 min ([10]; 20 min, Zn by ICP-OES, relative to control sample): 727.83 ng/mL; plasma concentration at 1 h ([10]; 1 h, Zn by ICP-OES, relative to control sample): 1023.55 ng/mL; plasma concentration at 2 h ([10]; 2 h, Zn by ICP-OES, relative to control sample): 1191.95 ng/mL; plasma concentration at 4 h ([10]; 4 h, Zn by ICP-OES, relative to control sample): 624.70 ng/mL; solubility in organic solvents [11]: reasonably soluble only in dimethyl sulfoxide (DMSO)
N.N.[Cl][Pt][Cl] [Cisplatin, reference compound]												143 ± 3.3	46.2 ± 4.9	56.5 ± 6.8	75.4 ± 6	60.3 ± 15.1	85 ± 10.1	serum AST and ALT enzymatic activity levels versus control group (BALB/c mice [12]): no significant difference
O.O.O.O.O.O.[Cl][Zn][Cl] [ZnCl2·6H2O]		0.5			0.6		0.2		0.3		0.3	475 ± 64.3	240 ± 16.8	383 ± 7.8	1090 ± 73.8	698 ± 10.9	864 ± 14	
CCNC(=S)N/N=C(\C)c1ccccn1 [Hatc-Et]	904 ± 65.3		9	532 ± 12.6		420.3 ± 3.7		553 ± 45		746 ± 23.2								
